Like-named read-outs stand apart in the source and are kept apart here.
Legend:
Assay in all cases: In-vitro tumor cell proliferation inhibition, MTT
Type in all cases: cell-based, human
[1] = system: colon cancer cell strain SW620
Summary of the method: (§1)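 A431, HCC827, SW620 and BT474 cells (HCC827 seeded at 6×10^4 cells/ml) treated overnight-after-plating with graded compound concentrations for 72 h at 37° C; MTT read at 570 nm. Inhibition calculated versus untreated control, triplicate wells, ≥3 repeats; reported as IC50 or inhibitory rate.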

[2] = system: malignant melanoma cell strain A375
[3] = system: gastric cancer cell strain MK-45; conditions: 72 hours, read-out: MK45 (IC50)
[4] = system: liver cancer cell strain Hep G2
[5] = system: breast carcinoma cell strain MDA-MB-468
[6] = system: chronic granulocytic leukemia cell strain K562
[7] = system: breast carcinoma cell strain BT474
Summary of the method: as §1

[8] = system: non-small cell lung carcinoma cell strain H292 (EGFR WT)
[9] = system: non-small cell lung carcinoma cell strain HCC827
Summary of the method: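 Cells grown in RPMI-1640 with 10% FBS, seeded overnight (HCC827 at 6×10^4 cells/ml), then exposed to graded compound concentrations for 72 h at 37 °C, 5% CO2, with 1% DMSO solvent control. MTT absorbance at 570 nm; inhibition relative to control; triplicate wells, ≥3 repeats.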

[10] = system: non-small cell lung carcinoma cell strain H1975 (EGFR L858R/T790M mutation)
[11] = system: non-small cell lung carcinoma cell strain PC-9 (EGFR delE746-A750 deletion mutation); conditions: 72 hours
[12] = 72 hours, read-out: HEPG2 (IC50)

| Compound | IC50 ([1]; 72 hours) | IC50 ([2]; 72 hours) | IC50 [3] | IC50 [4, 12] | IC50 ([5]; 72 hours) | IC50 ([6]; 72 hours) | IC50 ([7]; 72 hours) | IC50 ([8]; 72 hours) | IC50 ([9]; 72 hours) | IC50 ([10]; 72 hours) | IC50 [11] | also measured |
| --- | --- | --- | --- | --- | --- | --- | --- | --- | --- | --- | --- | --- |
| CC(C)n1c(Nc2ccccc2)nc2cnc(Nc3ccc(C(=O)NN4CCN(C)CC4)cc3)nc21 [Compound 8-1] | > 10 µM | 3.02 µM | 6.8 µM | > 10 µM | 2.06 µM | 1.08 µM | 2.13 µM | 1.39 µM | 0.002 µM | 7.6 µM | 0.105 µM | – |
| CC(C)n1c(Nc2ccc(F)c(Cl)c2)nc2cnc(Nc3ccc(C(=O)NN4CCN(C)CC4)cc3)nc21 [Compound 8-2] | 5.57 µM | 1.59 µM | > 1 µM | > 10 µM | 6.13 µM | 3.73 µM | 1.86 µM | 0.883 µM | 0.0013 µM | > 10 µM | 0.558 µM | – |
| COc1cc(C(=O)NN2CCN(C)CC2)ccc1Nc1ncc2nc(Nc3ccccc3)n(C(C)C)c2n1 [Compound 8-7, 3-methoxy-4-(9-isopropyl-8-phenylamino-9H-purin-2-ylamino)-N-(4-methylpiperazin-1-yl)benzamide] | – | – | – | – | – | – | – | – | – | – | – | IC50 ([1]; Homo sapiens, SW-620, 72 hours): > 10 µM; IC50 ([2]; Homo sapiens, A-375, 72 hours): 1.31 µM; IC50 ([3]; Homo sapiens): 3.76 µM; IC50 ([4]; Homo sapiens, HepG2, 72 hours): > 10 µM; IC50 ([5]; Homo sapiens, MDA-MB-468, 72 hours): > 10 µM; IC50 ([6]; Homo sapiens, K562, 72 hours): > 10 µM; IC50 ([7]; Homo sapiens, BT-474, 72 hours): 5.82 µM; IC50 ([8]; Homo sapiens, NCI-H292, 72 hours): 0.138 µM; IC50 ([9]; Homo sapiens, HCC827, 72 hours): 0.0075 µM; IC50 ([10]; Homo sapiens, NCI-H1975, 72 hours): > 10 µM; IC50 ([11]; Homo sapiens): 0.0121 µM |
| CC(C)n1c(Nc2ccccc2)nc2cnc(Nc3ccc(C(=O)NC4CCN(C)CC4)cc3)nc21 [Compounds 8-9] | 0.524 µM | 0.586 µM | 0.764 µM | > 10 µM | 1.32 µM | 0.143 µM | 1.03 µM | 0.16 µM | 0.0042 µM | > 10 µM | 0.0723 µM | – |
| CC(C)n1c(Nc2cccc(Br)c2)nc2cnc(Nc3ccc(N4CCN(C)CC4)cc3)nc21 [Compounds 8-11] | 1.96 µM | 1.39 µM | > 1 µM | 11.2 µM | 1.19 µM | 0.366 µM | 0.575 µM | 0.0088 µM | 0.0002 µM | 1.73 µM | 0.0002 µM | – |
| C#Cc1cccc(Nc2nc3cnc(Nc4ccc(N5CCN(C)CC5)cc4)nc3n2C(C)C)c1 [Compounds 8-12] | 1.29 µM | 3.09 µM | > 1 µM | 6.61 µM | 3.21 µM | 0.221 µM | 2.14 µM | 0.0107 µM | 0.0002 µM | 1.93 µM | 0.0002 µM | – |
| CC(C)n1c(Nc2ccc(F)c(Cl)c2)nc2cnc(Nc3ccc(N4CCN(C)CC4)cc3)nc21 [Compounds 8-13] | 3.68 µM | 0.838 µM | > 1 µM | 5.96 µM | 2.1 µM | 0.086 µM | 0.202 µM | 0.0061 µM | 0.0002 µM | 2 µM | 0.0003 µM | – |
| CC(C)n1c(Nc2ccc(Br)cc2)nc2cnc(Nc3ccc(N4CCN(C)CC4)cc3)nc21 [Compounds 8-15] | 2.99 µM | 0.775 µM | 0.71 µM | 7.79 µM | 2.3 µM | 0.303 µM | 1.92 µM | 0.221 µM | 0.0002 µM | > 10 µM | 0.0064 µM | – |
| CC(C)n1c(Nc2cccc(C(F)(F)F)c2)nc2cnc(Nc3ccc(N4CCN(C)CC4)cc3)nc21 [Compounds 8-16] | 0.864 µM | 3.1 µM | > 1 µM | 10.4 µM | 1.96 µM | 2.52 µM | 1.37 µM | 0.129 µM | 0.0002 µM | 1.82 µM | 0.0168 µM | – |
| COc1cccc(Nc2nc3cnc(Nc4ccc(N5CCN(C)CC5)cc4)nc3n2C(C)C)c1 [Compounds 8-17] | > 1 µM | 0.19 µM | 0.664 µM | > 10 µM | 0.783 µM | 0.003 µM | 0.635 µM | 0.0296 µM | 0.0002 µM | 1.9 µM | 0.0025 µM | – |
| COc1ccc(Nc2nc3cnc(Nc4ccc(N5CCN(C)CC5)cc4)nc3n2C(C)C)cc1 [Compounds 8-18] | 4 µM | 6.46 µM | 1.52 µM | > 10 µM | 3.17 µM | 1.22 µM | 2.12 µM | 0.531 µM | 0.117 µM | > 10 µM | 0.0349 µM | – |
| CC(C)n1c(Nc2ccc(NC(=O)Nc3ccc(F)c(Cl)c3)cc2)nc2cnc(Nc3ccc(N4CCN(C)CC4)cc3)nc21 [Compounds 8-21] | 2.23 µM | 0.725 µM | 1.33 µM | 8.93 µM | 0.89 µM | 1.33 µM | 1.59 µM | 1.16 µM | 0.0516 µM | 7.31 µM | 0.0859 µM | – |
| CC(C)n1c(Nc2ccc(C(=O)Nc3cccc(F)c3)cc2)nc2cnc(Nc3ccc(N4CCN(C)CC4)cc3)nc21 [Compounds 8-22] | 1.92 µM | 1.3 µM | 0.511 µM | > 10 µM | 1.73 µM | 0.921 µM | 1.73 µM | 1.73 µM | > 1 µM | > 10 µM | 2.79 µM | – |
| CN1CCN(c2ccc(Nc3ncc4nc(Nc5ccccc5)n(C5CC5)c4n3)cc2)CC1 [Compounds 8-23] | > 10 µM | 3.18 µM | 2.79 µM | > 10 µM | 5.22 µM | 5.2 µM | 6.81 µM | 0.154 µM | 0.0002 µM | > 10 µM | 0.0359 µM | – |
| CN1CCN(c2ccc(Nc3ncc4nc(Nc5ccccc5)n(C)c4n3)cc2)CC1 [Compounds 8-24] | > 10 µM | 2.4 µM | 8.08 µM | > 10 µM | 9.65 µM | 1.42 µM | 2.41 µM | 0.171 µM | 0.0002 µM | > 10 µM | 0.006 µM | – |
| CN1CCN(c2ccc(Nc3ncc4nc(Nc5ccccc5)[nH]c4n3)cc2)CC1 [Compounds 8-25] | > 10 µM | > 10 µM | 5.35 µM | > 10 µM | > 10 µM | > 10 µM | 9.99 µM | 1.65 µM | 0.0528 µM | > 10 µM | 0.258 µM | – |
| CC(C)n1c(Nc2ccc(C(F)(F)F)cc2)nc2cnc(Nc3ccc(N4CCN(C)CC4)cc3)nc21 [Compounds 8-27] | > 1 µM | 9.79 µM | 6.11 µM | > 1 µM | 1.96 µM | 0.777 µM | 1.18 µM | 4.19 µM | 0.0823 µM | > 10 µM | 0.115 µM | – |
| CC(C)n1c(NC2CCCCC2)nc2cnc(Nc3ccc(N4CCN(C)CC4)cc3)nc21 [Compounds 8-30] | 4.22 µM | > 10 µM | 5.47 µM | > 10 µM | > 10 µM | 5.76 µM | 4.46 µM | 0.201 µM | 0.483 µM | > 10 µM | 0.0551 µM | – |
| C=CC(=O)Nc1cccc(Nc2ncc3nc(Nc4ccccc4)n(C(C)C)c3n2)c1 [Compounds 8-38] | 0.37 µM | > 10 µM | 1.79 µM | 2.9 µM | 0.281 µM | 0.269 µM | 1.68 µM | 0.0073 µM | 0.0005 µM | 0.644 µM | 0.0007 µM | – |
